Assay results as given in patent US8524755B2 (priority 2009, dated 2013).

What was measured:
β2 (h) = target: T1, β2 (h) (Homo sapiens, UniProt P07550); assay: Binding β2 (h) (ag); conditions: read-out: % Inhibition of Control Specific Binding @ 10 μM
T1 construct: expressed in transfected cells; host or cells: CHO cells
Procedure: (§1) Radioligand binding assay methods utilized to measure the activity of compounds of the invention will be familiar to those skilled in the art. In each assay case, the assay components such as, for example, the cell-type, ligand, reference compound and the like, will be familiar to practitioners of such an assay.
(§2) Analysis and Expression of Results: Compounds of the invention were tested in the biochemical assays and percent inhibition of specific binding was determined. The specific ligand binding to the receptors is defined as the difference between the total binding and the nonspecific binding determined in the presence of an excess of unlabelled ligand. The results are expressed as a percent inhibition of control specific binding (100−((measured specific binding/control specific binding)×100)) obtained in the presence of test compounds.

AMPA = assay: Binding AMPA (ag); parameters: species or system rat
Procedure: as §1, §2

opioid (ns) = assay: Binding opioid (ns) (aa); parameters: species or system rat
Procedure: as §1, §2

PCP = assay: Binding PCP (aa); parameters: species or system rat
Procedure: as §1, §2

P2X = assay: Binding P2X (ag); parameters: species or system rat
Procedure: as §1, §2

Progesterone PR (h) = assay: Binding PR (h) (ag); parameters: species or system human
Procedure: as §1, §2

Thyroid hormone TR (TH) = assay: Binding TR (TH) (ag); parameters: species or system rat
Procedure: as §1, §2

Vasopressin V1a (h) = target: T2, Vasopressin V1a (h) (Homo sapiens, UniProt P37288); assay: Binding V1a (h) (ag); conditions: read-out: % Inhibition of Control Specific Binding @ 10 μM
T2 construct: expressed in transfected cells; host or cells: CHO cells
Procedure: as §1, §2

Vasopressin V2 (h) = target: T3, Vasopressin V2 (h) (Homo sapiens, UniProt P30518); assay: Binding V2 (h) (ag); conditions: read-out: % Inhibition of Control Specific Binding @ 10 μM
T3 construct: expressed in transfected cells; host or cells: CHO cells
Procedure: as §1, §2

PDE3A (h) = target: T4, PDE3A (h) (Homo sapiens, UniProt Q14432); assay: Enzyme assay PDE3A (h); format: biochemical; conditions: read-out: % Inhibition of Control Values @ 10 μM
T4 construct: host or cells: Sf9 cells
Excerpt: (§3) The enzyme assays provided below will be familiar to those skilled in the art.
(§4) Analysis and Expression of Results: The results are expressed as a percent of control specific activity ((measured specific activity/control specific activity)×100) obtained in the presence of the test compounds.

COMT = assay: Enzyme assay COMT; format: biochemical, porcine
Excerpt: as §3, §4

tyrosine hydroxylase = target: T5, tyrosine hydroxylase (Rattus norvegicus, UniProt P04177); assay: Enzyme assay tyrosine hydroxylase; format: biochemical; conditions: read-out: % Inhibition of Control Values @ 10 μM
T5 construct: rat striatum; from tissue; host or cells: rat striatum
Excerpt: as §3, §4

adenylyl cyclase (basal) = assay: Enzyme assay adenylyl cyclase (basal); format: biochemical, rat
Excerpt: as §3, §4

Androgen Receptor = target: T6, Androgen Receptor (Homo sapiens, UniProt P10275); assay: Androgen Receptor Nuclear Translocation Assay; format: cell-based; conditions: for EC50: agonist mode, PathHunter NHRPro cells, 5 h, read-out: AR Nuclear Translocation Assay Agonist Mode EC50; for IC50: antagonist mode, agonist challenge at EC80, read-out: AR Nuclear Translocation Assay Antagonist Mode IC50
T6 construct: expressed in transfected cells; host or cells: PathHunter NHRPro cell lines
T6 sequence (P10275 1-920): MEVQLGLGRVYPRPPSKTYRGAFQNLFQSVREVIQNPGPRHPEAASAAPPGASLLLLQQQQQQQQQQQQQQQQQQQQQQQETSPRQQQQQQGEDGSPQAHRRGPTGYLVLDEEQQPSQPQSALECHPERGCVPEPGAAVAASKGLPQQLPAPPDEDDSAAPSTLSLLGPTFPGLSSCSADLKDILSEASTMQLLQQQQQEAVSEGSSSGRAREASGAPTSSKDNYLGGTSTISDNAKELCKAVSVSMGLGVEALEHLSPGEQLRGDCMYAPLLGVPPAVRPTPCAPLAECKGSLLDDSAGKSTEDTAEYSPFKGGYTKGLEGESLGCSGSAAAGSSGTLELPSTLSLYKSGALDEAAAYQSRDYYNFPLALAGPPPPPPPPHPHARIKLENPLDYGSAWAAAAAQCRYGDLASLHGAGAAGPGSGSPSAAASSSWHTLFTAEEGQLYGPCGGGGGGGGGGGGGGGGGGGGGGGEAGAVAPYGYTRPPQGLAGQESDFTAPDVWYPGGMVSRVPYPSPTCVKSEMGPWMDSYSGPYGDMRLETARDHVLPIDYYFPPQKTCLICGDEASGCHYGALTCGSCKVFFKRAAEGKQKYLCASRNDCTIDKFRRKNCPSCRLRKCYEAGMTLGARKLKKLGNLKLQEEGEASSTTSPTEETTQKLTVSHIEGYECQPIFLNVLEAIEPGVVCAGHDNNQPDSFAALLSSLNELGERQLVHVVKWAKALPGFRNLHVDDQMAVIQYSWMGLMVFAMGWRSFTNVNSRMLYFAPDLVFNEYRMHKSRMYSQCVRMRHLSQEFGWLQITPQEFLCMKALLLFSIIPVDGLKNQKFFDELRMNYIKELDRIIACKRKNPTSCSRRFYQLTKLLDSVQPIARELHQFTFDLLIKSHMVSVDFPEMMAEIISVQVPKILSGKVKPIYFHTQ
Procedure: Once it was established that the cells were healthy and growing normally, cells were transferred from flasks using trypsin-free cell dissociation buffer and seeded into white walled clear bottom 384-well microplates for compound profiling. For profiling, cells were seeded at a density of 10,000 cells per well in a total volume of 50 μL and were allowed to adhere and recover overnight prior to compound addition. Media contained charcoal-dextran filtered serum to reduce the level of hormones present.
Agonist Format: Intermediate dilution of compound stocks were generated such that 5.5 μL of 10X compound could be added to each well with a final DMSO concentration of 1% of total volume. For profiling compound in agonist mode, the cells were incubated in the presence of compound at 37° C. for 5 h.
Antagonist Format: Agonist dose curves were performed to determine the EC80 value for the following antagonist testing with compounds. 5.5 μL of 10× agonist was added to each well with an equal concentration of vehicle present. EC80 agonist concentration was determined directly from agonist dose curve. For antagonist determination, cells were pre-incubated with antagonist followed by agonist challenge at the EC80 concentration: 5.5 μL of 10× compound added to cells and incubated at 37° C. for 1 h; 5.5 μL of 11× EC80 agonist added to cells and incubated at 37° C. for 5 h.
Signal Detection: After appropriate compound incubation, assay signal was generated through a single addition of 30 μL (50% v/v) of PathHunter Detection reagent cocktail for agonist and antagonist assays respectively followed by 1 h incubation at room temperature. Microplates were read following signal generation with a PerkinElmer ViewLux™ instrument for chemiluminescent signal detection.
Data Analysis: Dose curves in the presence and absence of compound were plotted using GraphPad Prism.

T4 sequence (Q14432 whole entry): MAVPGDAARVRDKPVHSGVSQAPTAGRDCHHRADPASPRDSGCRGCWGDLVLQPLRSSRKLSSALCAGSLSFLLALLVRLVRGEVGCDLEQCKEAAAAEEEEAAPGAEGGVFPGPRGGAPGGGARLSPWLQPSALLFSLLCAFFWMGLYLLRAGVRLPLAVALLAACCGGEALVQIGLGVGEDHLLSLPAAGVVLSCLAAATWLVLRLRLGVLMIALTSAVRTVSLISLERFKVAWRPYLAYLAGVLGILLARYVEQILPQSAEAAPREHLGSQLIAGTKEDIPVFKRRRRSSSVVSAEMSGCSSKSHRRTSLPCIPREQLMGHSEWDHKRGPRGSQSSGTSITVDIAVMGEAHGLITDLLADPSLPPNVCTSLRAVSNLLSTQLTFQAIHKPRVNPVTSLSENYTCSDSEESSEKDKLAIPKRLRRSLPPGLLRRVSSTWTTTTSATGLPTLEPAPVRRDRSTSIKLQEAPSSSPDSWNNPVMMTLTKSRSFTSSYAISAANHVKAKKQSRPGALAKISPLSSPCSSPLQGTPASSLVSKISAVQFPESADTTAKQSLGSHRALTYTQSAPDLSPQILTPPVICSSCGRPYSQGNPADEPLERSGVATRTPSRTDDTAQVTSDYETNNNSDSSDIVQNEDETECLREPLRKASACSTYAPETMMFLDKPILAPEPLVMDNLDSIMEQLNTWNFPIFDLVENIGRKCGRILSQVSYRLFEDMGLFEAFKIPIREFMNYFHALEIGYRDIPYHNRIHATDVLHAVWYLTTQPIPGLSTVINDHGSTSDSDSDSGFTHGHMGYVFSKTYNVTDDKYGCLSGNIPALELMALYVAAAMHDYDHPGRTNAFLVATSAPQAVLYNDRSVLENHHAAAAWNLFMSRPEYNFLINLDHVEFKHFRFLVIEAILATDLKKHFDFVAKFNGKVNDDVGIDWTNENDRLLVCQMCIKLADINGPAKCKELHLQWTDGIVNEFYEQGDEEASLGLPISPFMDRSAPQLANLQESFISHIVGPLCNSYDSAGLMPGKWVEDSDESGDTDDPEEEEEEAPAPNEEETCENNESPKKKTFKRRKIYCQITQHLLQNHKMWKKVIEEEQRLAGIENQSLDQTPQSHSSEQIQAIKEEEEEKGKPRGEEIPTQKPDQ
T2 sequence (P37288 whole entry): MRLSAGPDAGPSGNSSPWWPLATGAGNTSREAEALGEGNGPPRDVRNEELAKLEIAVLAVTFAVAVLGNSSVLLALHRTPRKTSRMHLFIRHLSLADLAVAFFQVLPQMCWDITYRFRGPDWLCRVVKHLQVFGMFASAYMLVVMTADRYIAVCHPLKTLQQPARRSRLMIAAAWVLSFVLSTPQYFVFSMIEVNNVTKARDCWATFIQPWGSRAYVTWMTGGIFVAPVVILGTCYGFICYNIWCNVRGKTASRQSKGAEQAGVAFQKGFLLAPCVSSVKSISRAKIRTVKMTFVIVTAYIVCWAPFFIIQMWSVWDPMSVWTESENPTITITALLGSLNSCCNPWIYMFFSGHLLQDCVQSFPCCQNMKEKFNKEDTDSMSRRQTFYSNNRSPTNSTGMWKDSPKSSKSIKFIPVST
T5 sequence (P04177 whole entry): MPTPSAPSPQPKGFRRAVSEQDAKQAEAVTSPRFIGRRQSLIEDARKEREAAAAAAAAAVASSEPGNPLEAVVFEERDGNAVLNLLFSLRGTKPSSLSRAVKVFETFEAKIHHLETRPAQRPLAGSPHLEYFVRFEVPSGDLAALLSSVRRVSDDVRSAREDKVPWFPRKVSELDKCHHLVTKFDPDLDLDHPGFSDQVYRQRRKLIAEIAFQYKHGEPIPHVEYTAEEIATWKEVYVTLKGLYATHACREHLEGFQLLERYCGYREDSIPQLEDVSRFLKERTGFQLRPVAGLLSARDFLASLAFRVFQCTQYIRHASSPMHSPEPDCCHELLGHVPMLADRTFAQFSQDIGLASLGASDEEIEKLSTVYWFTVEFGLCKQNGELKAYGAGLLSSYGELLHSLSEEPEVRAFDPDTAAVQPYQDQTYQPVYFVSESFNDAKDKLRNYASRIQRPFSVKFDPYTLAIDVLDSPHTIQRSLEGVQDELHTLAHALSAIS
T3 sequence (P30518 whole entry): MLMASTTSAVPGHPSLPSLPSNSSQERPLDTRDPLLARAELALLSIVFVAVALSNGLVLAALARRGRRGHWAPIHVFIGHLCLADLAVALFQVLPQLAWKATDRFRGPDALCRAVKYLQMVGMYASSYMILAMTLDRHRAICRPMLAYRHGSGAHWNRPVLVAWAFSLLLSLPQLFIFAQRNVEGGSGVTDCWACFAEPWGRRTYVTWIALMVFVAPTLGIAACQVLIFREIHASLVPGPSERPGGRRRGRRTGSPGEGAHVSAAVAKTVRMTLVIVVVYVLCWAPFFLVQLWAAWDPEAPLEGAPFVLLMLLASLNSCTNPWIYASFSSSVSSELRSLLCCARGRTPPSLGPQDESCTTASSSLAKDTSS
T1 sequence (P07550 whole entry): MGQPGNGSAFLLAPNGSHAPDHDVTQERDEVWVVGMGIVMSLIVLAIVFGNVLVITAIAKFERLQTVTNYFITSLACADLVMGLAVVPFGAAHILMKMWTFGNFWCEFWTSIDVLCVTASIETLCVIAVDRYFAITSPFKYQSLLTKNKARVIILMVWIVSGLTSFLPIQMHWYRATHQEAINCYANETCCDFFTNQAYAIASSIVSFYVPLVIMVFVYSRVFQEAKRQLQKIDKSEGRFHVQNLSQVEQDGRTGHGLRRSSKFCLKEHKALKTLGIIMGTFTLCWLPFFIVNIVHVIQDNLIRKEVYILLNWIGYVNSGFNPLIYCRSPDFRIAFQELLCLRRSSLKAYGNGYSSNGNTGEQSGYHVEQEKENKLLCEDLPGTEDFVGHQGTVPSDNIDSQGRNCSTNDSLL

CC1(C)C(=O)N(c2ccc(C#N)c(C(F)(F)F)c2)C(=S)N1c1ccc(C(=O)O)c(F)c1 [(MI), 4-(3-(4-cyano-3-(trifluoromethyl)phenyl)-5,5-dimethyl-4-oxo-2-thioxoimidazolidin-1-yl)-2-fluorobenzoic acid]
inhibition at 10 µM (β2 (h)): 6%
% Inhibition of Control Specific Binding @ 10 μM (AMPA): 1%
% Inhibition of Control Specific Binding @ 10 μM (opioid (ns)): −6%
% Inhibition of Control Specific Binding @ 10 μM (PCP): 0%
% Inhibition of Control Specific Binding @ 10 μM (P2X): 4%
% Inhibition of Control Specific Binding @ 10 μM (Progesterone PR (h)): 23%
% Inhibition of Control Specific Binding @ 10 μM (Thyroid hormone TR (TH)): −7%
inhibition at 10 µM (Vasopressin V1a (h)): 2%
inhibition at 10 µM (Vasopressin V2 (h)): 5%
inhibition at 10 µM (PDE3A (h)): 3%
% Inhibition of Control Values @ 10 μM (COMT): 1%
inhibition at 10 µM (tyrosine hydroxylase): -4%
% Stimulation Relative to Control @ 10 μM (adenylyl cyclase (basal)): 0%
EC50 (Androgen Receptor): > 60 µM
IC50 (Androgen Receptor): > 60 µM

CC1(C)C(=O)N(c2ccc(C#N)c(C(F)(F)F)c2)C(=O)N1c1ccc(C(N)=O)c(F)c1 [(MIII), 4-(3-(4-cyano-3-(trifluoromethyl)phenyl)-5,5-dimethyl-2,4-dioxoimidazolidin-1-yl)-2-fluorobenzamide]
inhibition at 10 µM (β2 (h)): -6%
% Inhibition of Control Specific Binding @ 10 μM (AMPA): −2%
% Inhibition of Control Specific Binding @ 10 μM (opioid (ns)): −15%
% Inhibition of Control Specific Binding @ 10 μM (PCP): 2%
% Inhibition of Control Specific Binding @ 10 μM (P2X): 2%
% Inhibition of Control Specific Binding @ 10 μM (Progesterone PR (h)): 8%
% Inhibition of Control Specific Binding @ 10 μM (Thyroid hormone TR (TH)): −9%
inhibition at 10 µM (Vasopressin V1a (h)): -1%
inhibition at 10 µM (Vasopressin V2 (h)): 4%
inhibition at 10 µM (PDE3A (h)): 4%
% Inhibition of Control Values @ 10 μM (COMT): −1%
inhibition at 10 µM (tyrosine hydroxylase): -2%
% Stimulation Relative to Control @ 10 μM (adenylyl cyclase (basal)): 4%
EC50 (Androgen Receptor): > 60 µM
IC50 (Androgen Receptor): 16.2 µM

CNC(=O)c1ccc(N2C(=O)N(c3ccc(C#N)c(C(F)(F)F)c3)C(=O)C2(C)C)cc1F [(MIV), 4-(3-(4-cyano-3-(trifluoromethyl)phenyl)-5,5-dimethyl-2,4-dioxoimidazolidin-1-yl)-2-fluoro-N-methylbenzamide]
inhibition at 10 µM (β2 (h)): -10%
% Inhibition of Control Specific Binding @ 10 μM (AMPA): −4%
% Inhibition of Control Specific Binding @ 10 μM (opioid (ns)): −10%
% Inhibition of Control Specific Binding @ 10 μM (PCP): 4%
% Inhibition of Control Specific Binding @ 10 μM (P2X): 2%
% Inhibition of Control Specific Binding @ 10 μM (Progesterone PR (h)): 11%
% Inhibition of Control Specific Binding @ 10 μM (Thyroid hormone TR (TH)): −2%
inhibition at 10 µM (Vasopressin V1a (h)): -8%
inhibition at 10 µM (Vasopressin V2 (h)): -1%
inhibition at 10 µM (PDE3A (h)): 2%
% Inhibition of Control Values @ 10 μM (COMT): 0%
inhibition at 10 µM (tyrosine hydroxylase): -2%
% Stimulation Relative to Control @ 10 μM (adenylyl cyclase (basal)): 11%
EC50 (Androgen Receptor): > 60 µM
IC50 (Androgen Receptor): 11.6 µM

CC1(C)C(=O)N(c2ccc(C#N)c(C(F)(F)F)c2)C(=S)N1c1ccc(C(N)=O)c(F)c1 [(MII), 4-(3-(4-Cyano-3-(trifluoromethyl)phenyl)-5,5-dimethyl-4-oxo-2-thioxoimidazolidin-1-yl)-2-fluorobenzamide]
inhibition at 10 µM (β2 (h)): -3%
% Inhibition of Control Specific Binding @ 10 μM (AMPA): −10%
% Inhibition of Control Specific Binding @ 10 μM (opioid (ns)): −14%
% Inhibition of Control Specific Binding @ 10 μM (PCP): 5%
% Inhibition of Control Specific Binding @ 10 μM (P2X): 4%
% Inhibition of Control Specific Binding @ 10 μM (Progesterone PR (h)): 74%
% Inhibition of Control Specific Binding @ 10 μM (Thyroid hormone TR (TH)): 0%
inhibition at 10 µM (Vasopressin V1a (h)): 15%
inhibition at 10 µM (Vasopressin V2 (h)): 3%
inhibition at 10 µM (PDE3A (h)): 0%
% Inhibition of Control Values @ 10 μM (COMT): −1%
inhibition at 10 µM (tyrosine hydroxylase): 2%
% Stimulation Relative to Control @ 10 μM (adenylyl cyclase (basal)): 3%
EC50 (Androgen Receptor): > 60 µM
IC50 (Androgen Receptor): 3.2 µM
